Results as given in paper PMC2697495 (The Journal of pharmacy and pharmacology, 2008).

Molecular target: T1, UGT1A1 (Homo sapiens, UniProt P22309)
T1 sequence (P22309 26-533): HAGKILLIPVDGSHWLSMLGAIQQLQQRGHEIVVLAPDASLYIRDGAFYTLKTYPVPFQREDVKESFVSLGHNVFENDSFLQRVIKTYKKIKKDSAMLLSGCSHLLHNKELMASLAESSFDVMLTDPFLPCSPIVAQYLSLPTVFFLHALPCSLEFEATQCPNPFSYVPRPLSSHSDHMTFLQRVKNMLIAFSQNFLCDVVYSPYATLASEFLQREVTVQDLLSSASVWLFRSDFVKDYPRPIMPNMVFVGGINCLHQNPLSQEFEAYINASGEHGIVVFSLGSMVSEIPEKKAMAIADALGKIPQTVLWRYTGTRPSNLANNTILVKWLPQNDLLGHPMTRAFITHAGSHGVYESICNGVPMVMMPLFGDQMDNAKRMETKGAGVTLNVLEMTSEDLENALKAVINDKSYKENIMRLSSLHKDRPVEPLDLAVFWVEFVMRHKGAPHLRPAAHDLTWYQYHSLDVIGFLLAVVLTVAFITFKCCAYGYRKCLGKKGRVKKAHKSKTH
Assay: Estradiol-3 glucuronidation by recombinant UGT1A1
Type: biochemical
Conditions: for Estradiol-3 glucuronidation, % of the control activity (measured at 0 mM): UGT1A1, 100 μM estradiol, n=3

SMILES: O=C(O)[C@@H](O)[C@H]1OC(=O)[C@H](O)[C@H]1O [saccharolactone, D-saccharic acid 1,4-lactone]
- Estradiol-3 glucuronidation, % of the control activity (measured at 0 mM) (5 mM saccharolactone): 92±2%
- Estradiol-3 glucuronidation, % of the control activity (measured at 0 mM) (20 mM saccharolactone): 87±5%
- effect on estradiol glucuronidation (recombinant UGT1A1): no effect
